A short description of data set [1]: Cyclic voltammetry screening (3-electrode beaker cell). The following applies: 0.1 M TBAPF6 in acetonitrile; for E1/2^0 (half-cell potential, arithmetic average of anode and cathode peaks): 5 mM redox species, Ag|10 mM AgNO3 reference; for E1/2^0 (half-cell potential, arithmetic average of anode and cathode peaks) / redox potential, E1/2: 100 mV/s; for redox potential, E1/2 / Redox activity of the bipolar molecule (in words): 5 mM; for redox potential, E1/2: vs Ag|10 mM AgNO3 in acetonitrile (−0.09 V vs Fc|Fc+); for Ecell^0 (cell voltage) / E^1/2, anolyte (negative) redox event / E^1/2, catholyte (positive) redox event: bipolar compound 5 mM; for E^1/2, anolyte (negative) redox event / E^1/2, catholyte (positive) redox event: vs Ag|10 mM AgNO3; for Redox activity of the bipolar molecule (in words): cyclic voltammogram. Format: physicochemical.

Data set [2] in a line: Room temperature solubility in acetonitrile. Format: physicochemical. The following applies: moles per liter of solution; for solubility: organic solvent or mixture, read-out: MeCN solubility.

In brackets after ≈: the same amount, converted by molar mass.

What is called solubility is how much of the substance goes into solution per volume.

Regarding `Cc1cccc2ccccc12` [1-methylnaphthalene, reference compound], in data set [1], the “E1/2^0 (half-cell potential, arithmetic average of anode and cathode peaks)” value is −2.909 V vs Ag|Ag^+; the “redox potential, E1/2” value was −2.909 V. In data set [2] (acetonitrile solvent), the MeCN solubility result was “miscible”.
As for `COc1ccc(OCCc2cccc3ccccc23)cc1` [Entry 1], in data set [1], the “Ecell^0 (cell voltage)” value is 3.82 V; the “E^1/2, anolyte (negative) redox event” value was −2.857 V; the “E^1/2, catholyte (positive) redox event” value is recorded as “+0.958 V”.
As for `COc1ccc(OCc2cccc3ccccc23)cc1` [Entry 2], in data set [1], the “E^1/2, catholyte (positive) redox event” value is given as “+0.981 V” and the “Redox activity of the bipolar molecule (in words)” value (from here on “Redox activity”) is recorded as “non-redox active molecule”.
For `COc1ccc(OCCc2cccc(-c3ccccc3)c2)cc1` [Entry 3], in data set [1], the “Ecell^0 (cell voltage)” value is on record as 3.93 V; the “E^1/2, anolyte (negative) redox event” value is reported as −2.976 V; the “E^1/2, catholyte (positive) redox event” value is on record as “+0.953 V”.
The like results for `COc1ccc(OCCc2ccccc2-c2ccccc2)cc1` [Entry 4] were, in that order, 3.82 V, −1.217 V and “+0.934 V”.
Consider `COc1ccc(OCc2ccccc2-c2ccccc2)cc1` [Entry 5], for which, in data set [1], the “E^1/2, catholyte (positive) redox event” value is “+0.985 V” and the “Redox activity” value is on record as “non-redox active molecule”.
On to `COc1ccc(OCCc2ccc(/C=C/c3ccccc3)cc2)cc1` [Entry 6], for which, in data set [1], the “Ecell^0 (cell voltage)” value was determined as 3.73 V; the “E^1/2, anolyte (negative) redox event” value is −2.632 V; the “E^1/2, catholyte (positive) redox event” value is “+1.096 V”.
In the case of `COc1ccc(CCOc2ccc(/C=C/c3ccccc3)cc2)cc1` [Entry 7], in data set [1], the “E^1/2, anolyte (negative) redox event” value is given as −2.665 V and the “Redox activity” value is listed as “non-redox active molecule”.
As to `c1ccc(-c2ccccc2)cc1` [biphenyl, reference compound], in data set [1], the “E1/2^0 (half-cell potential, arithmetic average of anode and cathode peaks)” value is recorded as −2.987 V vs Ag|Ag^+; the “redox potential, E1/2” value is recorded as −2.987 V. In addition, in data set [2], the solubility is 1730 mM (≈ 267 mg/mL).
In the same order, the values of `COc1ccc(OC)cc1` [p-dimethoxybenzene, reference compound] are “+0.967 V vs Ag|Ag^+”, “+0.967 V” and 600 mM (≈ 82.9 mg/mL).
In the same order, the values of `C(=C\c1ccccc1)/c1ccccc1` [trans-stilbene, reference compound] are −2.571 V vs Ag|Ag^+, −2.571 V and 1070 mM (≈ 193 mg/mL).

The record behind these values is patent publication US20250118779A1, “BIPOLAR PARAMETHOXYPHENYL CONTAINING REDOX MOLECULES” (ExxonMobil Technology and Engineering Company, priority 2023, published 2025).
